#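 Dose response: 5 concentrations. Exposure: 48 h. Format: 96-well plates. Endpoint: linear interpolation; highest concentration if not reached. TGI marks complete inhibition of growth.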
# System: NCI-H226 lung
# Test: DTP human tumour cell line panel, 48 h
row,Structure (SMILES),TGI
1,O=C1C=CC(=O)c2c1ccc1c3ccccc3n(CCCCCn3c4ccccc4c4ccc5c(c43)C(=O)C=CC5=O)c21,> 100 µM
2,C=C(Cl)C(=CCl)CCC(Br)C(C)(C)Cl (mixture of isomers),> 10 µM
3,Nc1ccc2c(c1)C(=O)N1CCC[C@H]1C(=O)N2,> 100 µM
4,Cc1ccc(/C=N/Nc2cc(C)c3cccc(C)c3n2)s1,37.5 µM
5,CC(=O)N(C(C)=O)c1ncc(-n2nc(-c3ccccc3)cc2-c2ccccc2)c(-c2ccccc2)n1,> 10 µM
6,CN1C(=O)c2ccccc2OC12C=Cc1c(ccc3ccccc13)O2 (centres undefined),48.6 µM
7,CO/N=C(\C(=O)OC(=NC1CCCCC1)NC1CCCCC1)c1csc(NC(c2ccccc2)(c2ccccc2)c2ccccc2)n1,> 10 µM
8,O=C1Sc2cc3ccccc3cc2C(=O)Sc2ccc(Br)cc21,42.6 µM
9,Cc1ccc2c(c1)C(=S)N1CSCC1c1nncn1-2 (centres undefined),> 100 µM
10,CC(C)NC(=O)OCc1c(COC(=O)NC(C)C)c(-c2cc[n+](COC(=O)C3CC3)cc2)n2c1CCC2,> 100 µM
11,COC(=O)C1=C(C(=O)OC)N(c2ccc(OC)cc2[N+](=O)[O-])C(c2ccc(C)cc2)=CC1c1ccc(OC)cc1OC (centres undefined),49.9 µM
12,COc1cccc(C2c3cc4c(cc3OC(N3CCCCC3)C2C)OCO4)c1O (centres undefined),46.7 µM
13,O=C1c2ccccc2C(=O)c2c(NCC(O)CO)ccc(NCC(O)CO)c21 (centres undefined),> 100 µM
14,CC1=C(C)CC2C(=O)N(c3cc(C(C)(C)C)ccc3C(C)(C)C)C(=O)C2C1 (centres undefined),> 100 µM
15,O=[N+]([O-])c1ccc(CN(CCCl)OCCCl)cc1,> 100 µM
16,CC1=NN(c2nc(N)nc(/C(C#N)=C\c3ccc([N+](=O)[O-])s3)n2)C(C)(C)C1,8.18 µM
17,O=c1[nH]cnc2c1cnn2Cc1cn(CCCCO)nn1,> 100 µM
18,C/C=C/C(CC(O)(C(F)(F)F)C(F)(F)F)=N/NC(N)=S,> 10 µM
19,O=C1/C(=C/c2ccc(Br)s2)NC(=S)N1c1ccccc1,> 100 µM
20,CN1CCc2c([nH]c3ccccc23)C1,> 100 µM
21,O=C(N/N=C(\c1ccccc1)c1ccccn1)NC1CCCCC1,83.2 µM
22,CCO/C(O)=C(/C(=N)N1CCOCC1)C(=O)Nc1ccc(F)cc1,> 100 µM
23,COc1cc(Nc2nc3ccccc3nc2C(=O)O)cc(OC)c1OC,> 100 µM

# System: U251 CNS
# Test: DTP human tumour cell line panel, 48 h
row,Structure (SMILES),TGI
1,Cc1ccc(S(=O)(=O)c2[nH]cc(/C(=C\C3CCCCC3)[N+](=O)[O-])c2C2CCCCC2)cc1,4.56 µM
2,O=C1C=CC(=O)c2c1ccc1c3ccccc3n(CCCCCn3c4ccccc4c4ccc5c(c43)C(=O)C=CC5=O)c21,54 µM
3,C=C(Cl)C(=CCl)CCC(Br)C(C)(C)Cl (mixture of isomers),> 10 µM
4,Nc1ccc2c(c1)C(=O)N1CCC[C@H]1C(=O)N2,> 100 µM
5,Cc1ccc(/C=N/Nc2cc(C)c3cccc(C)c3n2)s1,> 100 µM
6,CC(=O)N(C(C)=O)c1ncc(-n2nc(-c3ccccc3)cc2-c2ccccc2)c(-c2ccccc2)n1,> 10 µM
7,CN1C(=O)c2ccccc2OC12C=Cc1c(ccc3ccccc13)O2 (centres undefined),> 34 µM
8,CO/N=C(\C(=O)OC(=NC1CCCCC1)NC1CCCCC1)c1csc(NC(c2ccccc2)(c2ccccc2)c2ccccc2)n1,> 10 µM
9,O=C1Sc2cc3ccccc3cc2C(=O)Sc2ccc(Br)cc21,5.27 µM
10,Cc1ccc2c(c1)C(=S)N1CSCC1c1nncn1-2 (centres undefined),> 100 µM
11,CC(C)NC(=O)OCc1c(COC(=O)NC(C)C)c(-c2cc[n+](COC(=O)C3CC3)cc2)n2c1CCC2,> 100 µM
12,COC(=O)C1=C(C(=O)OC)N(c2ccc(OC)cc2[N+](=O)[O-])C(c2ccc(C)cc2)=CC1c1ccc(OC)cc1OC (centres undefined),34.8 µM
13,COc1cccc(C2c3cc4c(cc3OC(N3CCCCC3)C2C)OCO4)c1O (centres undefined),16.2 µM
14,O=C1c2ccccc2C(=O)c2c(NCC(O)CO)ccc(NCC(O)CO)c21 (centres undefined),> 100 µM
15,CC1=C(C)CC2C(=O)N(c3cc(C(C)(C)C)ccc3C(C)(C)C)C(=O)C2C1 (centres undefined),> 100 µM
16,O=[N+]([O-])c1ccc(CN(CCCl)OCCCl)cc1,> 100 µM
17,CC1=NN(c2nc(N)nc(/C(C#N)=C\c3ccc([N+](=O)[O-])s3)n2)C(C)(C)C1,0.221 µM
18,O=c1[nH]cnc2c1cnn2Cc1cn(CCCCO)nn1,> 100 µM
19,C/C=C/C(CC(O)(C(F)(F)F)C(F)(F)F)=N/NC(N)=S,> 10 µM
20,O=C1/C(=C/c2ccc(Br)s2)NC(=S)N1c1ccccc1,> 100 µM
21,CN1CCc2c([nH]c3ccccc23)C1,> 100 µM
22,O=C(N/N=C(\c1ccccc1)c1ccccn1)NC1CCCCC1,> 100 µM
23,CCO/C(O)=C(/C(=N)N1CCOCC1)C(=O)Nc1ccc(F)cc1,> 100 µM
24,COc1cc(Nc2nc3ccccc3nc2C(=O)O)cc(OC)c1OC,> 100 µM

# System: OVCAR-3 ovarian
# Test: DTP human tumour cell line panel, 48 h
row,Structure (SMILES),TGI
1,Cc1ccc(S(=O)(=O)c2[nH]cc(/C(=C\C3CCCCC3)[N+](=O)[O-])c2C2CCCCC2)cc1,0.981 µM
2,O=C1C=CC(=O)c2c1ccc1c3ccccc3n(CCCCCn3c4ccccc4c4ccc5c(c43)C(=O)C=CC5=O)c21,34.4 µM
3,C=C(Cl)C(=CCl)CCC(Br)C(C)(C)Cl (mixture of isomers),> 10 µM
4,Nc1ccc2c(c1)C(=O)N1CCC[C@H]1C(=O)N2,> 100 µM
5,Cc1ccc(/C=N/Nc2cc(C)c3cccc(C)c3n2)s1,22.2 µM
6,CC(=O)N(C(C)=O)c1ncc(-n2nc(-c3ccccc3)cc2-c2ccccc2)c(-c2ccccc2)n1,> 10 µM
7,CN1C(=O)c2ccccc2OC12C=Cc1c(ccc3ccccc13)O2 (centres undefined),19.1 µM
8,CO/N=C(\C(=O)OC(=NC1CCCCC1)NC1CCCCC1)c1csc(NC(c2ccccc2)(c2ccccc2)c2ccccc2)n1,> 10 µM
9,O=C1Sc2cc3ccccc3cc2C(=O)Sc2ccc(Br)cc21,5.21 µM
10,Cc1ccc2c(c1)C(=S)N1CSCC1c1nncn1-2 (centres undefined),> 100 µM
11,CC(C)NC(=O)OCc1c(COC(=O)NC(C)C)c(-c2cc[n+](COC(=O)C3CC3)cc2)n2c1CCC2,> 100 µM
12,COC(=O)C1=C(C(=O)OC)N(c2ccc(OC)cc2[N+](=O)[O-])C(c2ccc(C)cc2)=CC1c1ccc(OC)cc1OC (centres undefined),> 95 µM
13,COc1cccc(C2c3cc4c(cc3OC(N3CCCCC3)C2C)OCO4)c1O (centres undefined),9.14 µM
14,O=C1c2ccccc2C(=O)c2c(NCC(O)CO)ccc(NCC(O)CO)c21 (centres undefined),> 100 µM
15,CC1=C(C)CC2C(=O)N(c3cc(C(C)(C)C)ccc3C(C)(C)C)C(=O)C2C1 (centres undefined),> 100 µM
16,O=[N+]([O-])c1ccc(CN(CCCl)OCCCl)cc1,> 100 µM
17,CC1=NN(c2nc(N)nc(/C(C#N)=C\c3ccc([N+](=O)[O-])s3)n2)C(C)(C)C1,0.404 µM
18,O=c1[nH]cnc2c1cnn2Cc1cn(CCCCO)nn1,> 100 µM
19,C/C=C/C(CC(O)(C(F)(F)F)C(F)(F)F)=N/NC(N)=S,> 10 µM
20,O=C1/C(=C/c2ccc(Br)s2)NC(=S)N1c1ccccc1,> 100 µM
21,CN1CCc2c([nH]c3ccccc23)C1,> 100 µM
22,O=C(N/N=C(\c1ccccc1)c1ccccn1)NC1CCCCC1,> 100 µM
23,CCO/C(O)=C(/C(=N)N1CCOCC1)C(=O)Nc1ccc(F)cc1,> 100 µM
24,COc1cc(Nc2nc3ccccc3nc2C(=O)O)cc(OC)c1OC,> 100 µM

# System: EKVX NSCLC
# Test: DTP human tumour cell line panel, 48 h
row,Structure (SMILES),TGI
1,Cc1ccc(S(=O)(=O)c2[nH]cc(/C(=C\C3CCCCC3)[N+](=O)[O-])c2C2CCCCC2)cc1,1.4 µM
2,O=C1C=CC(=O)c2c1ccc1c3ccccc3n(CCCCCn3c4ccccc4c4ccc5c(c43)C(=O)C=CC5=O)c21,> 94.3 µM
3,C=C(Cl)C(=CCl)CCC(Br)C(C)(C)Cl (mixture of isomers),> 10 µM
4,Nc1ccc2c(c1)C(=O)N1CCC[C@H]1C(=O)N2,> 100 µM
5,Cc1ccc(/C=N/Nc2cc(C)c3cccc(C)c3n2)s1,38.2 µM
6,CC(=O)N(C(C)=O)c1ncc(-n2nc(-c3ccccc3)cc2-c2ccccc2)c(-c2ccccc2)n1,> 10 µM
7,CN1C(=O)c2ccccc2OC12C=Cc1c(ccc3ccccc13)O2 (centres undefined),10.7 µM
8,CO/N=C(\C(=O)OC(=NC1CCCCC1)NC1CCCCC1)c1csc(NC(c2ccccc2)(c2ccccc2)c2ccccc2)n1,> 10 µM
9,O=C1Sc2cc3ccccc3cc2C(=O)Sc2ccc(Br)cc21,28.1 µM
10,Cc1ccc2c(c1)C(=S)N1CSCC1c1nncn1-2 (centres undefined),> 100 µM
11,CC(C)NC(=O)OCc1c(COC(=O)NC(C)C)c(-c2cc[n+](COC(=O)C3CC3)cc2)n2c1CCC2,> 100 µM
12,COC(=O)C1=C(C(=O)OC)N(c2ccc(OC)cc2[N+](=O)[O-])C(c2ccc(C)cc2)=CC1c1ccc(OC)cc1OC (centres undefined),> 100 µM
13,COc1cccc(C2c3cc4c(cc3OC(N3CCCCC3)C2C)OCO4)c1O (centres undefined),56.8 µM
14,O=C1c2ccccc2C(=O)c2c(NCC(O)CO)ccc(NCC(O)CO)c21 (centres undefined),> 100 µM
15,CC1=C(C)CC2C(=O)N(c3cc(C(C)(C)C)ccc3C(C)(C)C)C(=O)C2C1 (centres undefined),> 100 µM
16,O=[N+]([O-])c1ccc(CN(CCCl)OCCCl)cc1,> 100 µM
17,CC1=NN(c2nc(N)nc(/C(C#N)=C\c3ccc([N+](=O)[O-])s3)n2)C(C)(C)C1,4.28 µM
18,O=c1[nH]cnc2c1cnn2Cc1cn(CCCCO)nn1,> 100 µM
19,C/C=C/C(CC(O)(C(F)(F)F)C(F)(F)F)=N/NC(N)=S,> 10 µM
20,O=C1/C(=C/c2ccc(Br)s2)NC(=S)N1c1ccccc1,> 100 µM
21,CN1CCc2c([nH]c3ccccc23)C1,> 100 µM
22,O=C(N/N=C(\c1ccccc1)c1ccccn1)NC1CCCCC1,> 100 µM
23,CCO/C(O)=C(/C(=N)N1CCOCC1)C(=O)Nc1ccc(F)cc1,> 100 µM
24,COc1cc(Nc2nc3ccccc3nc2C(=O)O)cc(OC)c1OC,> 100 µM

# System: PC-3 prostate
# Test: DTP human tumour cell line panel, 48 h
row,Structure (SMILES),TGI
1,Cc1ccc(S(=O)(=O)c2[nH]cc(/C(=C\C3CCCCC3)[N+](=O)[O-])c2C2CCCCC2)cc1,2.53 µM
2,O=C1C=CC(=O)c2c1ccc1c3ccccc3n(CCCCCn3c4ccccc4c4ccc5c(c43)C(=O)C=CC5=O)c21,33.9 µM
3,C=C(Cl)C(=CCl)CCC(Br)C(C)(C)Cl (mixture of isomers),> 10 µM
4,Nc1ccc2c(c1)C(=O)N1CCC[C@H]1C(=O)N2,> 100 µM
5,Cc1ccc(/C=N/Nc2cc(C)c3cccc(C)c3n2)s1,40.8 µM
6,CC(=O)N(C(C)=O)c1ncc(-n2nc(-c3ccccc3)cc2-c2ccccc2)c(-c2ccccc2)n1,> 10 µM
7,CN1C(=O)c2ccccc2OC12C=Cc1c(ccc3ccccc13)O2 (centres undefined),16.8 µM
8,CO/N=C(\C(=O)OC(=NC1CCCCC1)NC1CCCCC1)c1csc(NC(c2ccccc2)(c2ccccc2)c2ccccc2)n1,> 10 µM
9,O=C1Sc2cc3ccccc3cc2C(=O)Sc2ccc(Br)cc21,12.9 µM
10,Cc1ccc2c(c1)C(=S)N1CSCC1c1nncn1-2 (centres undefined),> 100 µM
11,CC(C)NC(=O)OCc1c(COC(=O)NC(C)C)c(-c2cc[n+](COC(=O)C3CC3)cc2)n2c1CCC2,> 100 µM
12,COC(=O)C1=C(C(=O)OC)N(c2ccc(OC)cc2[N+](=O)[O-])C(c2ccc(C)cc2)=CC1c1ccc(OC)cc1OC (centres undefined),> 100 µM
13,COc1cccc(C2c3cc4c(cc3OC(N3CCCCC3)C2C)OCO4)c1O (centres undefined),> 79.8 µM
14,O=C1c2ccccc2C(=O)c2c(NCC(O)CO)ccc(NCC(O)CO)c21 (centres undefined),> 100 µM
15,CC1=C(C)CC2C(=O)N(c3cc(C(C)(C)C)ccc3C(C)(C)C)C(=O)C2C1 (centres undefined),> 100 µM
16,O=[N+]([O-])c1ccc(CN(CCCl)OCCCl)cc1,> 100 µM
17,CC1=NN(c2nc(N)nc(/C(C#N)=C\c3ccc([N+](=O)[O-])s3)n2)C(C)(C)C1,0.429 µM
18,O=c1[nH]cnc2c1cnn2Cc1cn(CCCCO)nn1,> 100 µM
19,C/C=C/C(CC(O)(C(F)(F)F)C(F)(F)F)=N/NC(N)=S,> 10 µM
20,O=C1/C(=C/c2ccc(Br)s2)NC(=S)N1c1ccccc1,> 100 µM
21,CN1CCc2c([nH]c3ccccc23)C1,> 100 µM
22,O=C(N/N=C(\c1ccccc1)c1ccccn1)NC1CCCCC1,> 100 µM
23,CCO/C(O)=C(/C(=N)N1CCOCC1)C(=O)Nc1ccc(F)cc1,> 100 µM
24,COc1cc(Nc2nc3ccccc3nc2C(=O)O)cc(OC)c1OC,> 100 µM
